Laboratory results from patent US7517857B2, “Immune-modulating peptide” (POSCO, priority 2002, dated 2009).
Where a SMILES comes first, the peptide text is derived from it. [ ]: non-standard residue; d: D form.

Key:
[1] = tested on: CT26, colon carcinoma; experiment: Tumor growth in CT26-injected Balb/c mice; format: in vivo; settings: FIGS. 9A and 9B
Method: CT26, EL4 were maintained at 37° C. in a humidified 5% CO2 atmosphere in RPMA1640 medium supplemented with 20% (vol/vol) heat-inactivated fetal bovine serum. For animal experiments, the cells were passaged two to five times after re-growth from frozen stocks. Log phase CT26 cells were detached from tissue culture flasks with 0.25% trypsin and 0.03% EDTA. CT26 and EL4 were washed and resuspended in PBS immediately before injection.
In order to assess the antitumor effect of immuno-modulating peptide, Trp-Arg-Tyr-Met-Val-D-Met-CONH2, (WRYMVm; (SEQ ID NO: 4)), CT26, colon carcinoma was tested in Balb/c mice model. Tumor mass was measured in size every two days after 6 days from tumor cell inoculation.
To find the effective tumor-suppressing dose of WRYMVm, 0.1 μg/mouse, 0.25 μg/mouse, and 1 μg/mouse of WRYMVm were administered to CT26/Balb/c model. […] A similar phenomenon is easily found in chemotactic migration of leukocytes. In view of the fact that FPRL1, which is a target receptor for WRYMVm, is related to the chemotactic migration event, it is concluded that WRYMVm-induced antitumor effect might be derived from leukocyte infiltration event. Therefore, it is quite necessary to reveal the direct relationship between the WRYMVm-induced antitumor effect and the leukocyte infiltration event.

[2] = molecular target: T1, FPRL1 (Homo sapiens, UniProt P25090); experiment: ERK phosphorylation in FPRL1-expressing RBL-2H3 cells (immunoblot); format: cell-based
T1 construct: expressed in transfected cells; host or cells: RBL-2H3 (rat basophilic leukemia) cells, G418-selected
T1 sequence (P25090 1-351): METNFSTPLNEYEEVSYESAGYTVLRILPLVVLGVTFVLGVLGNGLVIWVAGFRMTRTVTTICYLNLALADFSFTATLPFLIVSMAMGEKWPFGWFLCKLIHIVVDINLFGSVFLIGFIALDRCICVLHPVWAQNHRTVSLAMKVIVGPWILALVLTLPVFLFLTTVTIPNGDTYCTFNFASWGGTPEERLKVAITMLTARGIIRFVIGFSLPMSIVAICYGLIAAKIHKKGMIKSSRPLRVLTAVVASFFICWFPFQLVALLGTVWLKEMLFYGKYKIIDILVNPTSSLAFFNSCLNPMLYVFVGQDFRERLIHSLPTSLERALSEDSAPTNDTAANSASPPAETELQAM
Method: Cultured RBL-2H3 cells were aliquoted into 2×10^6 cells and stimulated with the indicated concentrations of WKYMVm and the peptides of the present invention for the indicated lengths of time. FPR- or FPRL1-expressing RBL-2H3 cells were stimulated with 1 μM WKYMVm for various periods of time (FIG. 3A). Two cells were preincubated with a vehicle or 100 ng/ml of PTX (24 hr), 50 μM of LY294002 (15 min), 5 μM of GFX (15 min), 10 μM BAPTA/AM (60 min), or 50 μM PD98059 (60 min) prior to 1 μM of WKYMVm treatment (FIG. 3B). FPR- or FPRL1-expressing RBL2H3 cells were stimulated with 10 μM of the peptides of the present invention for 2 min or 5 min, respectively (FIG. 3C).
After stimulation, the cells were washed with serum-free RPMI and lysed in a lysis buffer (20 mM Hepes, pH 7.2, 10% glycerol, 150 mM NaCl, 1% Triton X-100, 50 mM NaF, 1 mM Na3VO4, 10 μg/ml leupeptin, 10 μg/ml aprotinin, and 1 mM phenylmethylsulfonyl fluoride). The detergent-insoluble materials were pelleted by centrifugation (12,000×g, 15 min, at 4° C.), and the soluble supernatant fraction was removed and stored at −80° C. or used immediately. Protein concentrations in the lysates were determined using the Bradford protein assay reagent.
Each sample ([…] of protein) was subjected to 10% SDS-PAGE and phosphorylated ERK was determined by an immunoblot analysis with an anti-phospho-ERK antibody. Protein samples were prepared for electrophoresis by addition of a concentrated sample buffer. The portions in the samples were then separated by an 10% SDS-polyacrylamide gel using the buffer system described by Laemmli (17).
Following the electrophoresis, a western blot analysis with an anti-ERK2 antibody was performed to confirm that the same amounts of samples were used for the experiments. The proteins were blotted onto nitrocellulose membranes. The nitrocellulose membranes were then blocked by incubation with TBS (Tris-buffered saline, 0.05% Tween-20) containing 5% non-fat dry milk. Subsequently, the membranes were incubated with anti-phospho-ERK antibody, anti-phospho-Akt antibody or anti-Akt antibody washed with TBS. For a PKC translocation assay, an antibody for PKC isozyme-specific was incubated. Antigen-antibody complexes were visualized after incubating the membrane with a 1:5000 diluted goat anti-rabbit IgG or goat anti-mouse IgG antibody coupled to horseradish peroxidase and using the enhanced chemiluminescence detection system.

Structure (SMILES): CSCC[C@H](NC(=O)[C@H](CCCNC(=N)N)NC(=O)[C@H](CCCCN)NC(=O)[C@@H](N)Cc1c[nH]c2ccccc12)C(=O)N[C@H](C(=O)N[C@H](CCSC)C(N)=O)C(C)C [WKRMVm-NH2, Trp-Lys-Arg-Met-Val-D-Met-NH2] (H-WKRMV[dM]-NH2; N-terminus assumed)
- tumor growth in CT26-injected mice (figure legend) [1]: attenuates tumor growth

Structure (SMILES): CSCC[C@H](NC(=O)[C@H](Cc1ccc(O)cc1)NC(=O)[C@H](CCCCN)NC(=O)[C@@H](N)Cc1c[nH]c2ccccc12)C(=O)N[C@H](C(=O)N[C@H](CCSC)C(N)=O)C(C)C [WKYMVm-NH2, Trp-Lys-Tyr-Met-Val-D-Met-NH2, reference compound]
- time of maximal ERKs activity after peptide treatment ([2]; 1 μM WKYMVm): 5 min
- ERKs phosphorylation/activation ([2]; 10 μM peptides 5 min (WKYMVm time course 1 μM)): induced transient activation of ERKs
